{"source": "patent US11963961B2", "about": "“Combination therapy comprising an ACC inhibitor” (Gilead Sciences, Inc., priority 2017, dated 2024)", "key": {"[1]": {"test_system": "non-cirrhotic subjects with NASH", "assay": "Phase 2 randomized placebo-controlled trial of Compound 1 in NASH: imaging, liver biochemistry, serum fibrosis markers, tolerability", "assay_type": "in vivo, human", "details": "for Liver stiffness by FibroScan, median relative change from baseline: W12, n = 40; for Hyaluronic acid, median relative change from baseline / PIII-NP, median relative change from baseline / TIMP-1, median relative change from baseline: W12, serum", "method": "Methods: In this double-blind, placebo-controlled trial, 126 non-cirrhotic subjects with NASH diagnosed noninvasively by MRI proton density fat fraction (PDFF) ≥8% and liver stiffness ≥2.5 kPa by MR elastography (MRE), or historical liver biopsy consistent with NASH and stage 1 to 3 fibrosis, were randomized 2:2:1 to receive Compound 1 20 mg, Compound 1 5 mg, or placebo orally QD for 12 weeks ([…]). Centrally-read MRI-PDFF and MRE, and FibroScan and serum markers of fibrosis were measured at baseline and […]. In some subjects, liver stiffness and hepatic fat content by Controlled Attenuation Parameter (CAP) were assessed using transient elastography (FibroScan®; Echosens, Paris, France) at baseline (i.e. week 0) and week 12."}, "[2]": {"test_system": "subjects with steatosis and F1-F3 fibrosis / NASH", "details": "Compound 1 20 mg; for ≥30% reduction in MRI-PDFF, % of subjects: 12 weeks", "method": "Ten subjects with steatosis (MRI-PDFF≥10%) and F1-F3 fibrosis (MRE≥2.88 kPa but non-cirrhotic based on FibroText <0.75, historical imaging and liver biopsy) were treated 20 mg Compound 1 for 12 weeks.\nFour of the ten subjects were on fish oil or fenofibrate at baseline and continued the concomitant medication for the duration of the study. Throughout the study subjects were monitored for safety (adverse events, laboratory abnormalities), liver biochemistry, serum markers of fibrosis (ELF and its components TIMP-1, hyaluronic acid, PIII-NP) and cell death (CK18 M30 and M65), liver stiffness (MRE) and fat (MRI-PDFF) and the effect on de novo lipogensis was assessed using heavy water labeling.\nThe four subjects were analyzed in conjunction with eight subjects from the study described in Example 1. These twelve subjects were on fish oil or fibrates for at least six weeks of the study and included those who were on fish oil or fibrates at baseline or who had graded hypertriglyceridemia and were given fish oil or fibrates during the study."}, "[3]": {"details": "Compound 1 5 mg orally QD, W12, n = 47"}, "[4]": {"details": "Compound 1 20 mg orally QD, W12, n = 46"}, "[5]": {"details": "Compound 1 20 mg, 5 mg, placebo, W12"}, "[6]": {"details": "split by fibrate/fish oil for > 6 weeks: without n = 47, with n = 12"}}, "note": "Read-outs that look alike come from different tables or passages of the source."}
{"smiles": "COc1ccccc1[C@H](Cn1c(=O)n(C(C)(C)C(=O)O)c(=O)c2c(C)c(-c3ncco3)sc21)OC1CCOCC1", "note": "[Compound 1, (R)-2-(1-(2-(2-methoxyphenyl)-2-((tetrahydro-2H-pyran-4-yl)oxy)ethyl)-5-methyl-6-(oxazol-2-yl)-2,4-dioxo-1,2-dihydrothieno[2,3-d]pyrimidin-3(4H)-yl)-2-methylpropanoic acid]", "values": [{"measurement": "ALT, median relative change from baseline", "setting": "[1]; Compound 1 5 mg orally QD, W12", "result": "−9.8", "unit": "%"}, {"measurement": "≥30% reduction in MRI-PDFF, % of subjects", "setting": "[1]; Compound 1 5 mg orally QD, W12 (11/47)", "result": 23, "unit": "%"}, {"measurement": "≥15% reduction in MRE-stiffness, % of subjects", "setting": "[1]; Compound 1 5 mg orally QD, W12 (19/47)", "result": 40, "unit": "%"}, {"measurement": "Liver stiffness by FibroScan, median relative change from baseline", "setting": "[1]; Compound 1 5 mg orally QD", "result": "−8.4", "unit": "%"}, {"measurement": "MRE-stiffness, median relative change from baseline", "setting": "[1]; [3]", "result": "−9.6", "unit": "%"}, {"measurement": "MRI-PDFF, median relative change from baseline", "setting": "[1]; [3]", "result": "−13.0", "unit": "%"}, {"measurement": "Hyaluronic acid, median relative change from baseline", "setting": "[1]; Compound 1 5 mg orally QD", "result": "−0.7", "unit": "%"}, {"measurement": "PIII-NP, median relative change from baseline", "setting": "[1]; Compound 1 5 mg orally QD", "result": "−7.0", "unit": "%"}, {"measurement": "TIMP-1, median relative change from baseline", "setting": "[1]; Compound 1 5 mg orally QD", "result": "−2.9", "unit": "%"}, {"measurement": "MRI-PDFF, differences from placebo", "setting": "[1]; Compound 1 5 mg, W12", "result": "not statistically significant"}, {"measurement": "Median alkaline phosphatase, change", "setting": "[1]; Compound 1 5 mg, W12", "result": "unchanged"}, {"measurement": "Hepatic steatosis by CAP (Controlled Attenuation Parameter)", "setting": "[1]; Compound 1 20 mg and 5 mg, week 12, differences not statistically significant", "result": "Dose-dependent reductions"}, {"measurement": "Tolerability", "setting": "[1]; Compound 1 20 mg or 5 mg QD, 12 weeks", "result": "generally well-tolerated"}, {"measurement": "ALT, median relative change from baseline", "setting": "[1]; Compound 1 20 mg orally QD, W12", "result": "−20.5", "unit": "%"}, {"measurement": "≥15% reduction in MRE-stiffness, % of subjects", "setting": "[1]; Compound 1 20 mg orally QD, W12 (15/46)", "result": 33, "unit": "%"}, {"measurement": "≥30% reduction in MRI-PDFF, % of subjects", "setting": "[1]; Compound 1 20 mg orally QD, W12 (22/46)", "result": 48, "unit": "%"}, {"measurement": "Liver stiffness by FibroScan, median relative change from baseline", "setting": "[1]; Compound 1 20 mg orally QD", "result": "−11.1", "unit": "%"}, {"measurement": "MRE-stiffness, median relative change from baseline", "setting": "[1]; [4]", "result": "−5.5", "unit": "%"}, {"measurement": "MRI-PDFF, median relative change from baseline", "setting": "[1]; [4]", "result": "−28.9", "unit": "%"}, {"measurement": "Hyaluronic acid, median relative change from baseline", "setting": "[1]; Compound 1 20 mg orally QD", "result": "−6.9", "unit": "%"}, {"measurement": "PIII-NP, median relative change from baseline", "setting": "[1]; Compound 1 20 mg orally QD", "result": "−13.9", "unit": "%"}, {"measurement": "TIMP-1, median relative change from baseline", "setting": "[1]; Compound 1 20 mg orally QD", "result": "−7.9", "unit": "%"}, {"measurement": "Liver stiffness by FibroScan, M probe, change from baseline to week 12 between treatment groups", "setting": "[1]; Compound 1 20 mg, 5 mg, placebo", "result": "no differences"}, {"measurement": "Changes in liver stiffness by MRE", "setting": "[1]; [5]", "result": "did not differ between groups"}, {"measurement": "Changes in other liver biochemistry tests and the composite ELF score among the treatment groups", "setting": "[1]; [5]", "result": "not significantly different"}, {"measurement": "MRI-PDFF compared with placebo", "setting": "[1]; Compound 1 20 mg, W12", "result": "statistically and clinically significant decrease"}, {"measurement": "Serum levels of TIMP-1", "setting": "[1]; Compound 1 20 mg, W12, p=0.022 vs placebo", "result": "significant reductions"}, {"measurement": "Median alkaline phosphatase, increase", "setting": "[1]; Compound 1 20 mg, W12, p≤0.001 vs placebo", "result": 9, "unit": "%"}, {"measurement": "≥30% reduction in MRI-PDFF, % of subjects", "setting": "[2]; all subjects (n = 59)", "result": 49, "unit": "%"}, {"measurement": "≥30% reduction in MRI-PDFF, % of subjects", "setting": "[2]; [6]", "result": 43, "unit": "%"}, {"measurement": "ALT, median relative change over 12 weeks", "setting": "[2]; all subjects (n = 59)", "result": "−21.9", "unit": "%"}, {"measurement": "ELF, median relative change over 12 weeks", "setting": "[2]; all subjects (n = 59)", "result": "−0.8", "unit": "%"}, {"measurement": "Fasting Glucose, median relative change over 12 weeks", "setting": "[2]; all subjects (n = 59)", "result": "−2.0", "unit": "%"}, {"measurement": "Hemoglobin A1c, median relative change over 12 weeks", "setting": "[2]; all subjects (n = 59)", "result": "−1.4", "unit": "%"}, {"measurement": "Hyaluronic acid, median relative change over 12 weeks", "setting": "[2]; all subjects (n = 59)", "result": "−5.9", "unit": "%"}, {"measurement": "MRE, median relative change over 12 weeks", "setting": "[2]; all subjects (n = 59)", "result": "−6.6", "unit": "%"}, {"measurement": "MRI-PDFF, median relative change over 12 weeks", "setting": "[2]; all subjects (n = 59)", "result": "−31.0", "unit": "%"}, {"measurement": "PIII-NP, median relative change over 12 weeks", "setting": "[2]; all subjects (n = 59)", "result": "−13.9", "unit": "%"}, {"measurement": "TIMP-1, median relative change over 12 weeks", "setting": "[2]; all subjects (n = 59)", "result": "−8.8", "unit": "%"}, {"measurement": "FibroScan, median relative change over 12 weeks", "setting": "[2]; all subjects, only Phase 2 study of Example 1", "result": "−11.1", "unit": "%"}, {"measurement": "ALT, median relative change over 12 weeks", "setting": "[2]; [6]", "result": "−19.4", "unit": "%"}, {"measurement": "ELF, median relative change over 12 weeks", "setting": "[2]; [6]", "result": "−0.35", "unit": "%"}, {"measurement": "Fasting Glucose, median relative change over 12 weeks", "setting": "[2]; [6]", "result": "−1.9", "unit": "%"}, {"measurement": "Hemoglobin A1c, median relative change over 12 weeks", "setting": "[2]; [6]", "result": "−1.4", "unit": "%"}, {"measurement": "Hyaluronic acid, median relative change over 12 weeks", "setting": "[2]; [6]", "result": "−4.5", "unit": "%"}, {"measurement": "MRE, median relative change over 12 weeks", "setting": "[2]; [6]", "result": "−3.2", "unit": "%"}, {"measurement": "MRI-PDFF, median relative change over 12 weeks", "setting": "[2]; [6]", "result": "−27.9", "unit": "%"}, {"measurement": "PIII-NP, median relative change over 12 weeks", "setting": "[2]; [6]", "result": "−13.9", "unit": "%"}, {"measurement": "TIMP-1, median relative change over 12 weeks", "setting": "[2]; [6]", "result": "−7.85", "unit": "%"}, {"measurement": "FibroScan, median relative change over 12 weeks", "setting": "[2]; split by fibrate/fish oil for > 6 weeks, only Phase 2 study of Example 1, n = 6 with fibrate/fish oil", "result": "−9.8", "unit": "%"}]}
